Experimental data as given in patent publication US20100137300A1, “Indolizine Acetic Acid Derivatives as CRTH2 Antagonists” (priority 2007, published 2010).
pIC50: −log10 of the molar value.

Target: T1, CRTH2 receptor (Homo sapiens, UniProt Q9Y5Y4)
T1 construct: expressed in transfected cells; host or cells: Human embryonic kidney (HEK) cells, membranes
T1 sequence (Q9Y5Y4 1-395): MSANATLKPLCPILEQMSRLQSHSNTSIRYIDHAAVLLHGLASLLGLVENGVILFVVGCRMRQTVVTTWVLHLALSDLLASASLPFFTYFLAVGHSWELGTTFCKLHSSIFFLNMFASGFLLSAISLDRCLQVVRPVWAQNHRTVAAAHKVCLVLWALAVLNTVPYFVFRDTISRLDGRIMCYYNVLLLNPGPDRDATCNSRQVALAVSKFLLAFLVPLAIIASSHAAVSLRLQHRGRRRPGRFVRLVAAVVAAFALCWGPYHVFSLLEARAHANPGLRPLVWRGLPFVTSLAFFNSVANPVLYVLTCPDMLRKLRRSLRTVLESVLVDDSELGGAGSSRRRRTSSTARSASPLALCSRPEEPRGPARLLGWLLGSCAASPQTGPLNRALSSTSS
Assay: CRTH2 radioligand binding assay ([3H]-PGD2 displacement)
Conditions: HEK cell membranes expressing the CRTH2 receptor, 1 nM [3H]-PGD2
Experimental: The receptor binding assay is performed in a final volume of 200 μL binding buffer [10 mM BES (pH 7.4), 1 mM EDTA, 10 mM manganese chloride, 0.01% BSA] and 1 nM [^3H]-PGD2 (Amersham Biosciences UK Ltd). Ligands are added in assay buffer containing a constant amount of DMSO (1% by volume). Total binding is determined using 1% by volume of DMSO in assay buffer and non-specific binding is determined using 10 μM of unlabeled PGD2 (Sigma). Human embryonic kidney (HEK) cell membranes (3.5 μg) expressing the CRTH2 receptor are incubated with 1.5 mg wheatgerm agglutinin SPA beads and 1 nM [^3H]-PGD2 (Amersham Biosciences UK Ltd) and the mixture incubated for 3 hours at room temperature. Bound [^3H]-PGD2 is detected using a Microbeta TRILUX liquid scintillation counter (Perkin Elmer). Compound IC50 value is determined using a 6-point dose response curve in duplicate with a semi-log compound dilution series. IC50 calculations are performed using Excel and XLfit (Microsoft), and this value is used to determine a Ki value for the test compound using the Cheng-Prusoff equation.

Row | Structure (SMILES) | pIC50
1 | Cc1c(Cc2ccc3cc(F)ccc3n2)c2cc(C#N)ccn2c1CC(=O)O [Example 6, [7-cyano-1-(6-fluoroquinolin-2-ylmethyl)-2-methylindolizin-3-yl]acetic acid] | 7.72
2 | Cc1c(Cc2ccc(S(=O)(=O)N3CCOCC3)cc2)c2cc(C#N)ccn2c1CC(=O)O [Example 1, {7-cyano-2-methyl-1-[4-(morpholine-4-sulfonyl)benzyl]indolizin-3-yl}acetic acid] | 7.24
